pIC50: −log10 of the molar value.
Tests used:
[1] = target: Matrix metalloproteinase-14 (Homo sapiens, UniProt P50281); experiment: MMP Inhibition Assay; conditions: pH 7.4; 22 °C
Protocol: (§1) A continuous assay was used in which the substrate is a synthetic peptide containing a fluorescent group (7-methoxycoumarin), which is quenched by energy transfer to a 2,4-dinitrophenyl group. […] The enzymatic reactions were initiated by adding the substrate, and the initial rate of the cleavage reaction was determined immediately after substrate addition.

Matrilysin = target: T1, Matrilysin (Homo sapiens, UniProt P09237); experiment: MMP Inhibition Assay; conditions: pH 7.4; 22 °C
T1 sequence (P09237 whole entry): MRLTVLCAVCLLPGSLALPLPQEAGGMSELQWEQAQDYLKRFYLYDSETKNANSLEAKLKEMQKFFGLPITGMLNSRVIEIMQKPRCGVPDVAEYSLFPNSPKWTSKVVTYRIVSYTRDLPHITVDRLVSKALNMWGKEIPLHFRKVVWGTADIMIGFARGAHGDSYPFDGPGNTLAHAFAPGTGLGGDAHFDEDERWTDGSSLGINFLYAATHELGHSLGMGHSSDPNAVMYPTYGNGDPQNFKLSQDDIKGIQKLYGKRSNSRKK
Protocol: as §1

Interstitial collagenase = target: T2, Interstitial collagenase (Homo sapiens, UniProt P03956); experiment: MMP Inhibition Assay; conditions: pH 7.4; 22 °C
T2 sequence (P03956 whole entry): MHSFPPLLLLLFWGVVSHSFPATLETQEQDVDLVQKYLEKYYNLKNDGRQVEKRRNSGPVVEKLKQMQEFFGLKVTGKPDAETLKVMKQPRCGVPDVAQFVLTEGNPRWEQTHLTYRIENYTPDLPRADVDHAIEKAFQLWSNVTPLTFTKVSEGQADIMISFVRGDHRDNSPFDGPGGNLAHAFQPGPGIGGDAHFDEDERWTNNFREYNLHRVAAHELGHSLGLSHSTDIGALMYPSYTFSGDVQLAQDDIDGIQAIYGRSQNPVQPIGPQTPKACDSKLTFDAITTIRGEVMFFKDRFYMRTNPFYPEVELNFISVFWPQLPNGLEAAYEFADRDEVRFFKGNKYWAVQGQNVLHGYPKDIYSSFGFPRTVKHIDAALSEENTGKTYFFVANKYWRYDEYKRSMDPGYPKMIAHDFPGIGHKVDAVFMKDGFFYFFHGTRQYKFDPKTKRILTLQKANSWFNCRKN
Protocol: as §1

[2] = target: 72 kDa type IV collagenase (Homo sapiens, UniProt P08253); experiment: MMP Inhibition Assay; conditions: pH 7.4; 22 °C
72 kDa type IV collagenase, sequence (P08253 whole entry): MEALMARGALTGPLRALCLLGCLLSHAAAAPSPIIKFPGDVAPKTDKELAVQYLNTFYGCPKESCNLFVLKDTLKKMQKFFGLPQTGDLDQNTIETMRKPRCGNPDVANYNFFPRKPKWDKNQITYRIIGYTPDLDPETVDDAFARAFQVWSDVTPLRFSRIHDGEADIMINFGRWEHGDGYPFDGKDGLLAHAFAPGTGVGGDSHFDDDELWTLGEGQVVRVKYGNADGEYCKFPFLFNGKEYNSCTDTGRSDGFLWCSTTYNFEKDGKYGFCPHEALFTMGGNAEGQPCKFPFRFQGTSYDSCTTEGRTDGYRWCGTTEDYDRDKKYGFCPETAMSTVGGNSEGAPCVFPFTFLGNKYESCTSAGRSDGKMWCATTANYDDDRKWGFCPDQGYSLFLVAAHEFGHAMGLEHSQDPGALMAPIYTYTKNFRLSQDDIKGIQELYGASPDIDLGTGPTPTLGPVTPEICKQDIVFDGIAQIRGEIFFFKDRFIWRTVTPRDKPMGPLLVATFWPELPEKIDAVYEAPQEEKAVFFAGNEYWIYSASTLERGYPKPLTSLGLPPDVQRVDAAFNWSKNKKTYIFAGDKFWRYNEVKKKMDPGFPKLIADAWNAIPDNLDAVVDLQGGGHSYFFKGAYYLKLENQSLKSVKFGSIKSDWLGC
Protocol: as §1

[3] = target: Disintegrin and metalloproteinase domain-containing protein 17 (Homo sapiens, UniProt P78536); experiment: TACE Inhibition Assay; conditions: pH 7.4; 22 °C
Disintegrin and metalloproteinase domain-containing protein 17, sequence (P78536 whole entry, the tested form may be a part): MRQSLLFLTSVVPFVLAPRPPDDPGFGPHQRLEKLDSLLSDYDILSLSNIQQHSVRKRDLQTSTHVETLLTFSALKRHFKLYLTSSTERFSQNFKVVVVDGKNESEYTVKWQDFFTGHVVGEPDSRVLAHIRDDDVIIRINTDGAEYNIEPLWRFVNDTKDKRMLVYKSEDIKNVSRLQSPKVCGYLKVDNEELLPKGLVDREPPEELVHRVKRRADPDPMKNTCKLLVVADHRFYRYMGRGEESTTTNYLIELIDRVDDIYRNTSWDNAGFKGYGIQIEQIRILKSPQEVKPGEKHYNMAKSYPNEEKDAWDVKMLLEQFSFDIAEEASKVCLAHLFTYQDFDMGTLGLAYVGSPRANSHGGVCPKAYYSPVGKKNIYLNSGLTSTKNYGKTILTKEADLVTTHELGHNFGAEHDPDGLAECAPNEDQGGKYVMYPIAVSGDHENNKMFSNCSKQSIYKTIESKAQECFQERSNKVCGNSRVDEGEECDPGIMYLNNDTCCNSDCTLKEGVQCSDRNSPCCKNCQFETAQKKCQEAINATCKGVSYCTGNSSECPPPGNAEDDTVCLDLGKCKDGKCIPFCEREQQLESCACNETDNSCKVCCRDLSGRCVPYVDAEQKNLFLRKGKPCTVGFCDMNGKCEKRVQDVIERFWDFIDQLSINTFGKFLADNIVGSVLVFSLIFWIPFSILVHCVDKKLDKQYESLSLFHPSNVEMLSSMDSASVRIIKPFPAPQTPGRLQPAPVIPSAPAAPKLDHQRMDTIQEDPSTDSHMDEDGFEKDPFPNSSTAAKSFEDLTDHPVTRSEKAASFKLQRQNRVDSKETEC
Protocol: Compounds were tested for their ability to inhibit the cleavage of the substrate by the purified enzyme in a fluorescence-based fluorescence resonance energy transfer (FRET) assay. The human TACE protein was pretreated with the inhibitors for 10 min at room temperature. The reaction was initiated by the addition of pro-TNF-alpha peptide to the TACE protein, and the increase in fluorescence was monitored at excitation of 320 nm and emission of 420 nm over a period of 10 min. Under this assay condition, the IC50 value is very close to the Ki value.

[4] = target: T3, A disintegrin and metalloproteinase with thrombospondin motifs 4 (Homo sapiens, UniProt O75173); experiment: Aggrecanase-1 Inhibition Assay; conditions: pH 7.5; 37 °C
T3 sequence (O75173 whole entry): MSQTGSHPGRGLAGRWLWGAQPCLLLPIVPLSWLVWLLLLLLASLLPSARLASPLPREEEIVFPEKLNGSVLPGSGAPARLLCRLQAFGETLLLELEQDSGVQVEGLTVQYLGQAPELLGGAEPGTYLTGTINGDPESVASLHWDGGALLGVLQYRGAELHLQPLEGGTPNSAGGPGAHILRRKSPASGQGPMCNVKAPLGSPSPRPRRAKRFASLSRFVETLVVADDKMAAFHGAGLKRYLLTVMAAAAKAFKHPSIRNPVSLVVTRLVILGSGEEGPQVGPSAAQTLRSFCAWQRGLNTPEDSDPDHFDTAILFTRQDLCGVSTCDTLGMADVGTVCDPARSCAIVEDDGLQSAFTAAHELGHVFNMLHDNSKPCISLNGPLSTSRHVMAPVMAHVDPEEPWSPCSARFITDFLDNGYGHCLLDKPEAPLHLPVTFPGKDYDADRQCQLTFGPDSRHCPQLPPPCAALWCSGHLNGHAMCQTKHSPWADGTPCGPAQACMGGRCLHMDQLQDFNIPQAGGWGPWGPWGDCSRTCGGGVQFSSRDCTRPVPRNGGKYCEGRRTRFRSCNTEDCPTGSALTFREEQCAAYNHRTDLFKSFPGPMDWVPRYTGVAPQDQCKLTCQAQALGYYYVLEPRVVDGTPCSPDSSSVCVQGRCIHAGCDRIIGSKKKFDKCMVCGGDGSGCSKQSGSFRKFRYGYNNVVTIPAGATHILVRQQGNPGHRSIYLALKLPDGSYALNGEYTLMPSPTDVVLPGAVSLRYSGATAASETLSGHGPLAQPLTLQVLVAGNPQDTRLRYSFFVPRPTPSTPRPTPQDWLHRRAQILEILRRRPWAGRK
Protocol: The recombinant Agg-1 proteins pretreated with the various concentrations of the compound for 10 to 15 min. The reaction was initiated by addition of the WAAG-3R substrate at a final concentration of 25 uM. The reaction is monitored at excitation of 340 nm and emission of 420 nm over a period of 30 min in a fluorimeter (GeminiXS; Molecular Devices Corp., Sunnyvale, CA).

pIC50 [1]: 7.59
pIC50 (Matrilysin): 7.59
pIC50 (Interstitial collagenase): 8.18
pIC50 [2]: 8.33
pIC50 [3]: 8.08
pIC50 [4]: 7.00
SMILES: CC#CCOc1ccc(S(=O)(=O)N2CCSC(C)(C)[C@@H]2C(=O)NO)cc1 [(3S)-4-{[4-(but-2-yn-1-yloxy)benzene]sulfonyl}-N-hydroxy-2,2-dimethylthiomorpholine-3-carboxamide]
